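1) Cells in 96-well plates. 2) Compound, 48 h, 5 concentrations. 3) Linear interpolation between surrounding doses. 4) Unreached endpoint = highest concentration. Here, GI50 denotes the concentration required for 50% inhibition of growth. TGI denotes the concentration required for complete inhibition of growth.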
Key:
Experiment in all cases: NCI-60 cell line screen, 48 h
786-0 renal = tested on: 786-0 renal
A498 renal = tested on: A498 renal
A549 NSCLC = tested on: A549 NSCLC
ACHN renal = tested on: ACHN renal
BT-549 breast = tested on: BT-549 breast
CAKI-1 renal = tested on: CAKI-1 renal
CCRF-CEM leukemia = tested on: CCRF-CEM leukemia
COLO 205 colon = tested on: COLO 205 colon
EKVX NSCLC = tested on: EKVX NSCLC
HCC-2998 colon = tested on: HCC-2998 colon
HCT-116 colon = tested on: HCT-116 colon
HCT-15 colon = tested on: HCT-15 colon
HL-60(TB) leukemia = tested on: HL-60(TB) leukemia
HOP-62 NSCLC = tested on: HOP-62 NSCLC
HOP-92 NSCLC = tested on: HOP-92 NSCLC
HS 578T breast = tested on: HS 578T breast
HT29 colon = tested on: HT29 colon
IGROV1 ovarian = tested on: IGROV1 ovarian
K-562 leukemia = tested on: K-562 leukemia
KM12 colon = tested on: KM12 colon
LOX IMVI melanoma = tested on: LOX IMVI melanoma
M14 melanoma = tested on: M14 melanoma
MCF7 breast = tested on: MCF7 breast
MDA-MB-231 breast = tested on: MDA-MB-231 breast
MDA-MB-435 = tested on: MDA-MB-435
MOLT-4 leukemia = tested on: MOLT-4 leukemia
NCI-H226 lung = tested on: NCI-H226 lung
NCI-H460 lung = tested on: NCI-H460 lung
NCI-H522 lung = tested on: NCI-H522 lung
NCI/ADR-RES ovarian = tested on: NCI/ADR-RES ovarian
OVCAR-3 ovarian = tested on: OVCAR-3 ovarian
OVCAR-4 ovarian = tested on: OVCAR-4 ovarian
OVCAR-5 ovarian = tested on: OVCAR-5 ovarian
OVCAR-8 ovarian = tested on: OVCAR-8 ovarian
PC-3 prostate = tested on: PC-3 prostate
RPMI-8226 leukemia = tested on: RPMI-8226 leukemia
RXF 393 renal = tested on: RXF 393 renal
SF-268 CNS = tested on: SF-268 CNS
SF-295 CNS = tested on: SF-295 CNS
SF-539 CNS = tested on: SF-539 CNS
SK-MEL-2 melanoma = tested on: SK-MEL-2 melanoma
SK-MEL-28 melanoma = tested on: SK-MEL-28 melanoma
SK-MEL-5 melanoma = tested on: SK-MEL-5 melanoma
SK-OV-3 ovarian = tested on: SK-OV-3 ovarian
SN12C renal = tested on: SN12C renal
SNB-19 CNS = tested on: SNB-19 CNS
SR leukemia = tested on: SR leukemia
SW-620 colon = tested on: SW-620 colon
T-47D breast = tested on: T-47D breast
TK-10 renal = tested on: TK-10 renal
U251 CNS = tested on: U251 CNS
UACC-257 melanoma = tested on: UACC-257 melanoma
UACC-62 melanoma = tested on: UACC-62 melanoma
UO-31 renal = tested on: UO-31 renal

Structure (SMILES): COc1cc2c(cc1OCCCCC(=O)Nc1ccc(-c3nc4ccccc4s3)cc1)N=C[C@@H]1CCCN1C2=O
- GI50 (786-0 renal): 1.56 µM
- TGI (786-0 renal): 3.51 µM
- GI50 (A498 renal): 1.87 µM
- TGI (A498 renal): 4.73 µM
- GI50 (A549 NSCLC): 3.38 µM
- TGI (A549 NSCLC): 11.2 µM
- GI50 (ACHN renal): 3 µM
- TGI (ACHN renal): 8.53 µM
- GI50 (BT-549 breast): 1.13 µM
- TGI (BT-549 breast): 2.36 µM
- GI50 (CAKI-1 renal): 2.2 µM
- TGI (CAKI-1 renal): 5.96 µM
- GI50 (CCRF-CEM leukemia): 1.2 µM
- TGI (CCRF-CEM leukemia): 3.62 µM
- GI50 (COLO 205 colon): 1.69 µM
- TGI (COLO 205 colon): 3.07 µM
- GI50 (EKVX NSCLC): 2.45 µM
- TGI (EKVX NSCLC): 5.52 µM
- GI50 (HCC-2998 colon): 1.58 µM
- TGI (HCC-2998 colon): 3.23 µM
- GI50 (HCT-116 colon): 1.86 µM
- TGI (HCT-116 colon): 5.78 µM
- GI50 (HCT-15 colon): 2.85 µM
- TGI (HCT-15 colon): 9.81 µM
- GI50 (HL-60(TB) leukemia): 1.77 µM
- TGI (HL-60(TB) leukemia): 6.31 µM
- GI50 (HOP-62 NSCLC): 2.45 µM
- TGI (HOP-62 NSCLC): 6.62 µM
- GI50 (HOP-92 NSCLC): 1.72 µM
- TGI (HOP-92 NSCLC): 4.63 µM
- GI50 (HS 578T breast): 2.75 µM
- TGI (HS 578T breast): 5.86 µM
- GI50 (HT29 colon): 2.16 µM
- TGI (HT29 colon): 7.75 µM
- GI50 (IGROV1 ovarian): 0.695 µM
- TGI (IGROV1 ovarian): 2.27 µM
- GI50 (K-562 leukemia): 1.75 µM
- TGI (K-562 leukemia): 11 µM
- GI50 (KM12 colon): 2.94 µM
- TGI (KM12 colon): 12.4 µM
- GI50 (LOX IMVI melanoma): 1.57 µM
- TGI (LOX IMVI melanoma): 2.91 µM
- GI50 (M14 melanoma): 1.55 µM
- TGI (M14 melanoma): 3.18 µM
- GI50 (MCF7 breast): 0.732 µM
- TGI (MCF7 breast): 3.43 µM
- GI50 (MDA-MB-231 breast): 2.08 µM
- TGI (MDA-MB-231 breast): 10.2 µM
- GI50 (MDA-MB-435): 1.76 µM
- TGI (MDA-MB-435): 3.45 µM
- GI50 (MOLT-4 leukemia): 1.63 µM
- TGI (MOLT-4 leukemia): 5.52 µM
- GI50 (NCI-H226 lung): 2.91 µM
- TGI (NCI-H226 lung): 7.83 µM
- GI50 (NCI-H460 lung): 1.67 µM
- TGI (NCI-H460 lung): 3.6 µM
- GI50 (NCI-H522 lung): 0.972 µM
- TGI (NCI-H522 lung): 2.65 µM
- GI50 (NCI/ADR-RES ovarian): 10.9 µM
- TGI (NCI/ADR-RES ovarian): 62.6 µM
- GI50 (OVCAR-3 ovarian): 1.86 µM
- TGI (OVCAR-3 ovarian): 8.01 µM
- GI50 (OVCAR-4 ovarian): 2.82 µM
- TGI (OVCAR-4 ovarian): 27.9 µM
- GI50 (OVCAR-5 ovarian): 3.56 µM
- TGI (OVCAR-5 ovarian): 11.9 µM
- GI50 (OVCAR-8 ovarian): 1.57 µM
- TGI (OVCAR-8 ovarian): 4.5 µM
- GI50 (PC-3 prostate): 2.04 µM
- TGI (PC-3 prostate): 5.93 µM
- GI50 (RPMI-8226 leukemia): 1.45 µM
- TGI (RPMI-8226 leukemia): 3.96 µM
- GI50 (RXF 393 renal): 1.61 µM
- TGI (RXF 393 renal): 3.05 µM
- GI50 (SF-268 CNS): 2.04 µM
- TGI (SF-268 CNS): 5.66 µM
- GI50 (SF-295 CNS): 0.556 µM
- TGI (SF-295 CNS): 3.37 µM
- GI50 (SF-539 CNS): 1.59 µM
- TGI (SF-539 CNS): 3.38 µM
- GI50 (SK-MEL-2 melanoma): 1.95 µM
- TGI (SK-MEL-2 melanoma): 4.22 µM
- GI50 (SK-MEL-28 melanoma): 2.23 µM
- TGI (SK-MEL-28 melanoma): 5.81 µM
- GI50 (SK-MEL-5 melanoma): 1.76 µM
- TGI (SK-MEL-5 melanoma): 3.17 µM
- GI50 (SK-OV-3 ovarian): 4.48 µM
- TGI (SK-OV-3 ovarian): 14.5 µM
- GI50 (SN12C renal): 2.81 µM
- TGI (SN12C renal): 9.72 µM
- GI50 (SNB-19 CNS): 2.68 µM
- TGI (SNB-19 CNS): 11.2 µM
- GI50 (SR leukemia): 0.548 µM
- TGI (SR leukemia): 9.48 µM
- GI50 (SW-620 colon): 1.64 µM
- TGI (SW-620 colon): 4.03 µM
- GI50 (T-47D breast): 1.96 µM
- TGI (T-47D breast): 10.1 µM
- GI50 (TK-10 renal): 3.2 µM
- TGI (TK-10 renal): 7.97 µM
- GI50 (U251 CNS): 1.9 µM
- TGI (U251 CNS): 6.63 µM
- GI50 (UACC-257 melanoma): 1.73 µM
- TGI (UACC-257 melanoma): 3.81 µM
- GI50 (UACC-62 melanoma): 1.73 µM
- TGI (UACC-62 melanoma): 3.39 µM
- GI50 (UO-31 renal): 1.66 µM
- TGI (UO-31 renal): 3.66 µM

Reference: PubChem BioAssay (NCI)
